Data reported in patent publication US11726088B2, “Sirtuin 4 (SIRT4) lipoamidase activity and uses thereof” (THE TRUSTEES OF PRINCETON UNIVERSITY, priority 2014, dated 2023).
Primed or numbered codes have the meaning given here. Ends that are not written are not given here. Peptide text beside a SMILES is read from it. * marks the point of attachment. ξ: configuration not given here. Biotin = O=C1N[C@H]2[C@H](CS[C@H]2CCCCC(=O)*)N1; lipoyl″ = O=C(CCCC[C@@H]1CCSS1)*; Lipoyl(6ξ) = O=C(CCCCC1CCSS1)*

T1: SIRT4 (Homo sapiens, UniProt Q9Y6E7)
T1 construct: 6xHis (followed by human rhinovirus 3C protease site) (N); made in house; host or cells: E. coli BL21(DE3), co-expressed with GroEL and GroES
T1 sequence (Q9Y6E7 33-314): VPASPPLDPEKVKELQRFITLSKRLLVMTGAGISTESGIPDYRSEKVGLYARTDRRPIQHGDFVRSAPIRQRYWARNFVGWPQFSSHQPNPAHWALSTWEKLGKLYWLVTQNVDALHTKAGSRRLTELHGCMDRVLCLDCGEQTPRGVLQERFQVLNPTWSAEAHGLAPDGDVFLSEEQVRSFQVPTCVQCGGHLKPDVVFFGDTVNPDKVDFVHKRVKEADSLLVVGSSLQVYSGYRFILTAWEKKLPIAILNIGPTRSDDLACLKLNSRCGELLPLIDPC

B1: SIRT4: N-terminally truncated recombinant human Sirt4 (33-314 of SEQ ID NO: 2) (protein, listed as Homo sapiens)
chain: T1 sequence (Q9Y6E7 33-314)
B2: PDP1: pyruvate dehydrogenase phosphatase catalytic subunit 1 (protein, UniProt Q9P0J1 72-537, looked up)
[Pyruvate dehydrogenase …: ASTPQKFYLTPPQVNSILKANEYSFKVPEFDGKNVSSILGFDSNQLPANAPIEDRRSAATCLQTRGMLLGVFDGHAGCACSQAVSERLFYYIAVSLLPHETLLEIENAVESGRALLPILQWHKHPNDYFSKEASKLYFNSLRTYWQELIDLNTGESTDIDVKEALINAFKRLDNDISLEAQVGDPNSFLNYLVLRVAFSGATACVAHVDGVDLHVANTGDSRAMLGVQEEDGSWSAVTLSNDHNAQNERELERLKLEHPKSEAKSVVKQDRLLGLLMPFRAFGDVKFKWSIDLQKRVIESGPDQLNDNEYTKFIPPNYHTPPYLTAEPEVTYHRLRPQDKFLVLATDGLWETMHRQDVVRIVGEYLTGMHHQQPIAVGGYKVTLGQMHGLLTERRTKMSSVFEDQNAATHLIRHAVGNNEFGTVDHERLSKMLSLPEELARMYRDDITIIVVQFNSHVVGAYQNQE

Assays:
Format in all cases: biochemical
[1] = biological target: T1, SIRT4; experiment: HPLC-based SIRT4 kinetics assays (steady-state, acyl-modified peptide substrates); settings: SIRT4 enzyme concentration = 5 μM; NAD 1 mM; 25° C.
Text: Recombinant SIRT4 protein expression and purification. N-terminally truncated human Sirt4 (33-314 of SEQ ID NO: 2) was cloned into a derivative of pET-15b containing a human rhinovirus 3C Protease cleavage site in place of its thrombin cleavage site. 6×His-Sirt4 was co-expressed with GroEL and GroES in BL21(DE3) E. coli in order to promote proper protein folding. Protein was purified using immobilized-metal affinity chromatography (IMAC) followed by anion-exchange chromatography to remove associated folding chaperones. For some experiments the His-tag was removed using 3C protease. Protein was concentrated, snap frozen in N2(l), and stored at −80° C. HPLC-based SIRT4 kinetics assays. SIRT4 kinetic assays were essentially performed as described by others^3,4. Briefly, enzyme reactions (20 μL) were performed in 50 mM Tris, pH 8.0, containing 5 μM recombinant SIRT4 and varying concentrations (0 to 2500 μM) of H3K9- or DLAT-modified peptides with either acetyl-lysine, biotinyl-lysine, or lipoyl-lysine. Reactions were initiated by addition of NAD (1 mM) and incubated at 25° C. for between 30-120 min, depending on substrate-specific reaction rates and to maintain steady-state conditions. Reactions were quenched with formic acid to a final concentration of 0.5% (v/v) and analyzed by HPLC-UV detection (Ultimate 3000 RSLC/VWD-3400). Substrate and product were separated by reverse-phase chromatography (Acclaim PepMap RSLC, 75 μm×15 cm) at 0.75 μL/min. Product concentration was measured by peak integration of A280 signals. Initial reaction velocities were determined in at least duplicate and fit to a modified Briggs-Haldane equation, which substituted kcat×[SIRT4] for Vmax and allowed determination of kinetic parameters, kcat, Km and kcat/Km and their associated error (±SEM), using GraphPad Prism 5. SIRT4's catalytic efficiency towards the various acyl-modified peptide substrates was assessed (Table 1 below).

[2] = biological target: T1, SIRT4; experiment: LC-MS-based in vitro peptide deacylation assay; settings: 5 μM SIRT4, 10 uM peptide, with NAD, 1 hr at 37° C.
Text: Recombinant SIRT4 protein expression and purification. N-terminally truncated human Sirt4 (33-314 of SEQ ID NO: 2) was cloned into a derivative of pET-15b containing a human rhinovirus 3C Protease cleavage site in place of its thrombin cleavage site. 6×His-Sirt4 was co-expressed with GroEL and GroES in BL21(DE3) E. coli in order to promote proper protein folding. Protein was purified using immobilized-metal affinity chromatography (IMAC) followed by anion-exchange chromatography to remove associated folding chaperones. For some experiments the His-tag was removed using 3C protease. Protein was concentrated, snap frozen in N2(l), and stored at −80° C.
LC-MS-based in vitro peptide deacylation assay. The ability of SIRT4 to hydrolyze various acyl-lysine modifications was measured using LC-MS. In 20 μL reaction volume, 10 uM peptide (lipoyl-, biotinyl-, or acetyl-lysine) was incubated with increasing concentrations of SIRT4 (0.5 μM, 2.5 μM, and 5 μM), with or without NAD, in 50 mM TrisHCl, pH 8, 137 mM NaCl, 2.7 mM KCl and 1 mM MgCl2, for 1 hr at 37° C. Reactions were quenched with 25 μL of 2% TFA and an internal control peptide was spiked in to monitor for run-to-run variability. Reaction products were desalted, eluted, concentrated and analyzed by nano-LC-MS/MS, as above, but altered LC gradients. A 30 min linear gradient from 4-40% B was used for all peptides, except for lipoyl-lysine biological peptides, which used a 12-70% B linear gradient. Data were imported into Skyline software (version 2.1) to obtain precursor extracted ion chromatographams (XICs) using the following settings: Isotope Count, 3; precursor mass analyzer, Orbitrap; Resolving power, 60,000 @ 400 Th. The retention times of substrate (modified) and product (unmodified) peptides were confirmed by fragmentation spectra and peak integration boundaries were manually inspected. Three biological replicates were analyzed for each reaction.
The lipoamide cofactor bound to E2 (transferase enzymes) is required for dehydrogenase complex activity (FIG. 1b). Given that other mitochondrial SIRTs can hydrolyze various […] group lysine modifications^3,4 and that all PDHC components were present in our SIRT4 isolation, we speculated that E2 dehydrogenase components may be biological substrates of SIRT4, and that SIRT4 may directly hydrolyze the lipoamid modification. To test this we screened the in vitro activity of recombinant SIRT4 against differentially-modified synthetic peptides (FIG. 10). Firstly, SIRT4 activity towards acyl-modified H3K9 peptides (SEQ ID NOs: 3-5) was measured using a liquid-chromatography (LC)-MS-based deacylation assay. SIRT4 was incubated with H3K9 peptides modified with acetyl-lysine (SEQ ID NO: 5), biotinyl-lysine (SEQ ID NO: 4) or lipoyl-lysine (SEQ ID NO: 3), in the presence or absence of NAD. Following reaction, the remaining unreacted substrates and newly generated unmodified peptides were identified and quantified by LC-MS (FIG. 2A, 2G-2I and FIG. 5). […] To compare the relative preference of SIRT4 for these different substrates, we used extracted ion chromatograms to quantify unreacted substrate (S) and product (P) amounts from all reactions, and represented the percentage of unmodified peptide generated (FIG. 2H). […] The relative amount of unmodified product generated using 5 μM SIRT4 was 11% (lipoyl—SEQ ID NO: 3), 3% (biotinyl—SEQ ID NO: 4) and 0.3% (acetyl—[…]) (FIG. 2B and FIG. 2H, H3K9 substrates). […]

[3] = system: purified porcine PDH; experiment: Immuno-capture activity assay of purified porcine PDH in vitro; settings: PDP1 0.1 μg/μL; recombinant SIRT4 50 μM + NAD 5 mM after PDP1
Experimental: Purified porcine heart PDH pre-incubated at a final concentration of 1 μg/μl (10 and 25 μL reactions for PDH assay and Western blot, respectively) in 1×PDH assay buffer for 10 min at 30° C. containing 2 mM CaCl2), with or without 0.1 μg/μL of pyruvate dehydrogenase phosphatase catalytic subunit 1 (PDP1, Abcam, cat. #ab110357). To reactions that were treated with PDP1, either NAD alone (5 mM), recombinant SIRT4 (50 μM)+NAD (5 mM), or recombinant SIRT4 H161Y (50 μM)+NAD (5 mM) were added and incubated for an additional 1 hr at RT. 10 μL reactions were diluted with 400 μL of 1×PDH assay buffer and 2×200 μL were used to determine PDH activity. For Western blot analysis (25 μl reactions), 5 μg of purified porcine PDH was mixed in 1× reducing LDS sample buffer, heated at 70° C. for 10 min, resolved by SDS-PAGE, and then proteins were transferred to nitrocellulose membranes for detection of total E1α, pS232, pS293, and pS300 (see western immunoblotting above).
To characterize the impact of the observed in vitro activity, we next assessed whether SIRT4 could regulate the activity of PDH. We first used an immuno-capture assay to test the activity of purified porcine PDH in vitro (FIG. 14A). […] Therefore, we speculated that the reduction in activity may result from SIRT4 directly hydrolyzing the DLAT lipoamide.

Molecule | Km [1] [µM] | relative amount of unmodified product generated [2] [%] | activity of purified porcine PDH [3]
C[C@H](NC(=O)[C@@H](NC(=O)[C@H](CCC(N)=O)NC(=O)[C@@H](N)CCCCN)[C@@H](C)O)C(=O)N[C@@H](CCCNC(=N)N)C(=O)N[C@@H](CCCCNC(=O)CCCCC1CCSS1)C(=O)N[C@@H](CO)C(=O)N[C@H](C(=O)NCC(=O)NCC(=O)N[C@@H](Cc1c[nH]c2ccccc12)C(=O)N[C@@H](Cc1c[nH]c2ccccc12)C(=O)O)[C@@H](C)O (some centres unmarked) [H3 K9 Lipoyl] (H-KQTARK(Lipoyl(6ξ))STGGWW-OH) | 814 ± 163 | 11 | –
MCD K471 Acetyl: synthetic MCD K471 peptide SYLGSKNIKASEW with acetyl-lysine (SEQ ID NO: 29) (also: acetyl-lysine at K471, K6 or K9 not given here) | > 2500 | – | –
C[C@H](NC(=O)[C@@H](NC(=O)[C@H](CCC(N)=O)NC(=O)[C@@H](N)CCCCN)[C@@H](C)O)C(=O)N[C@@H](CCCNC(=N)N)C(=O)N[C@@H](CCCCNC(=O)CCCC[C@@H]1SC[C@@H]2NC(=O)N[C@@H]21)C(=O)N[C@@H](CO)C(=O)N[C@H](C(=O)NCC(=O)NCC(=O)N[C@@H](Cc1c[nH]c2ccccc12)C(=O)N[C@@H](Cc1c[nH]c2ccccc12)C(=O)O)[C@@H](C)O [H3 K9 Biotinyl] (H-KQTARK(Biotin)STGGWW-OH) | 719 ± 79 | 3 | –
PDHX: lipoyl-modified PDHX peptide substrate (SEQ ID NO: 12); unmodified product is SEQ ID NO: 13 (EIETDK(lipoyl″)AVVTWW) | – | 42 | –
CC(=O)NCCCC[C@H](NC(=O)[C@H](CCCNC(=N)N)NC(=O)[C@H](C)NC(=O)[C@@H](NC(=O)[C@H](CCC(N)=O)NC(=O)[C@@H](N)CCCCN)[C@@H](C)O)C(=O)N[C@@H](CO)C(=O)N[C@H](C(=O)NCC(=O)NCC(=O)N[C@@H](Cc1c[nH]c2ccccc12)C(=O)N[C@@H](Cc1c[nH]c2ccccc12)C(=O)O)[C@@H](C)O [H3 K9 Acetyl] (H-KQTARK(Ac)STGGWW-OH) | > 2500 | 0.3 | –
CC[C@H](C)[C@H](NC(=O)[C@@H](NC(=O)[C@H](C)NC(=O)[C@H](CCCCNC(C)=O)NC(=O)[C@H](CC(=O)O)NC(=O)[C@@H](NC(=O)[C@H](CCC(=O)O)NC(=O)[C@@H](NC(=O)[C@@H](N)CCC(=O)O)[C@@H](C)CC)[C@@H](C)O)[C@@H](C)O)C(=O)NCC(=O)N[C@@H](Cc1c[nH]c2ccccc12)C(=O)O [DLAT K259 Acetyl] (H-EIETDK(Ac)ATIGW-OH) | > 2500 | – | –
B1 | – | – | able to attenuate PDH activity
B2 | – | – | elevated PDH activity
